Read-outs that look alike come from different tables or passages of the source.
What was measured:
[1] = tested on: corn (Zea mays); experiment: Test A postemergence; format: in vivo; settings: Zea mays, post-emergence, 240 h; for Corn plant response rating (crop injury, 0 = no effect, 100 = complete kill) at 125 g/ha: visual injury after approximately 10 d
How it was run: (§1)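 In a loam soil and sand blend, planted seeds got a preemergence directed soil spray, and young plants at the one- to two-leaf stage, 2–10 cm high, got a postemergence application; ~10 d greenhouse hold; injury rated visually, 0 = none, 100 = complete control.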

[2] = tested on: Galium (catchweed bedstraw, Galium aparine); experiment: Test A postemergence; format: in vivo; settings: Galium, post-emergence, 240 h; for pest or weed control at 125 g/ha: 125 g ai/ha
How it was run: as §1

[3] = tested on: Kochia (Kochia scoparia); experiment: Test A postemergence; format: in vivo; settings: Bassia scoparia, post-emergence, 240 h; for pest or weed control at 125 g/ha: 125 g ai/ha
How it was run: as §1

[4] = tested on: ragweed (common ragweed, Ambrosia elatior); experiment: Test A postemergence; format: in vivo; settings: Ambrosia artemisiifolia, post-emergence, 240 h; for pest or weed control at 125 g/ha: 125 g ai/ha
How it was run: as §1

[5] = tested on: barnyardgrass (Echinochloa crus-galli); experiment: Test A postemergence; format: in vivo; settings: Echinochloa crus-galli, post-emergence, 240 h; for pest or weed control at 125 g/ha: 125 g ai/ha
How it was run: as §1

[6] = 125 g ai/ha, Postemergence, 0 to 100 scale where 0 is no effect and 100 is complete control
[7] = Postemergence, visual injury after approximately 10 d, 0 to 100 scale where 0 is no effect and 100 is complete control, read-out: Plant response rating, Galium
[8] = Postemergence, visual injury after approximately 10 d, 0 to 100 scale where 0 is no effect and 100 is complete control, read-out: Plant response rating, Kochia
[9] = Postemergence, visual injury after approximately 10 d, 0 to 100 scale where 0 is no effect and 100 is complete control, read-out: Plant response rating, Ragweed
[10] = Postemergence, visual injury after approximately 10 d, 0 to 100 scale where 0 is no effect and 100 is complete control, read-out: Plant response rating, Barnyardgrass

| Structure (SMILES) | melting point [°C] | Corn plant response rating (crop injury, 0 = no effect, 100 = complete kill) at 125 g/ha [1, 6] [%] | pest or weed control at 125 g/ha [2, 7] [%] | pest or weed control at 125 g/ha [3, 8] [%] | pest or weed control at 125 g/ha [4, 9] [%] | pest or weed control at 125 g/ha [5, 10] [%] | further results |
| --- | --- | --- | --- | --- | --- | --- | --- |
| Cc1cc([C@H]2CN(C)C(=O)[C@@H]2C(=O)Nc2cccc(F)c2F)on1 [Compound 1196] | 144 to 148 |  |  |  |  |  | plant injury at 125 g/ha ([1]; 125 g ai/ha, postemergence, visual injury vs untreated controls after approx. 10 d, 0 = no effect, 100 = complete control, read-out: Corn plant response rating (0 to 100 scale)): 0%; plant injury at 500 g/ha ([1]; 500 g ai/ha, postemergence, 0 to 100 scale, 0 is no effect, 100 is complete control, read-out: Corn plant response rating): 0%; pest or weed control at 125 g/ha ([2]; postemergence, visual injury vs untreated controls after approx. 10 d, 0 = no effect, 100 = complete control, read-out: Galium plant response rating (0 to 100 scale)): 0%; pest or weed control at 500 g/ha ([2]; 500 g ai/ha, postemergence, 0 to 100 scale, 0 is no effect, 100 is complete control, read-out: Galium plant response rating): 0%; pest or weed control at 125 g/ha ([3]; postemergence, visual injury vs untreated controls after approx. 10 d, 0 = no effect, 100 = complete control, read-out: Kochia plant response rating (0 to 100 scale)): 0%; pest or weed control at 500 g/ha ([3]; 500 g ai/ha, postemergence, 0 to 100 scale, 0 is no effect, 100 is complete control, read-out: Kochia plant response rating): 0%; pest or weed control at 125 g/ha ([4]; postemergence, visual injury vs untreated controls after approx. 10 d, 0 = no effect, 100 = complete control, read-out: Ragweed plant response rating (0 to 100 scale)): 0%; pest or weed control at 500 g/ha ([4]; 500 g ai/ha, postemergence, 0 to 100 scale, 0 is no effect, 100 is complete control, read-out: Ragweed plant response rating): 0%; pest or weed control at 125 g/ha ([5]; postemergence, visual injury vs untreated controls after approx. 10 d, 0 = no effect, 100 = complete control, read-out: Barnyardgrass plant response rating (0 to 100 scale)): 70%; pest or weed control at 500 g/ha ([5]; 500 g ai/ha, postemergence, 0 to 100 scale, 0 is no effect, 100 is complete control, read-out: Barnyardgrass plant response rating): 90% |
| CCc1ccccc1NC(=O)[C@H]1C(=O)N(C)C[C@@H]1c1ccc(C(F)(F)F)cc1 [Compound 935] | 116 to 119 | 40 | 40 | 30 | 0 | 70 |  |
| O=C1NC[C@H](c2cccc(C(F)(F)F)n2)[C@H]1C(=O)Nc1ccccc1F [Compound 940] | 164 to 167 | 0 | 0 | 0 | 0 | 10 |  |
| O=C1NCC[C@H](c2ccc(Cl)cc2)[C@H]1C(=O)Nc1cccc(F)c1F [Compound 795] | 86 to 89 |  |  |  |  |  | Corn plant response rating (crop injury, 0 = no effect, 100 = complete kill) at 125 g/ha ([1]; 125 g ai/ha, postemergence, 0 to 100 scale (0 no effect, 100 complete control)): 0%; Corn plant response rating (crop injury, 0 = no effect, 100 = complete kill) at 31 g/ha ([1]; Postemergence, 31 g ai/ha, visual injury after approx. 10 d, 0 to 100 scale, 0 no effect, 100 complete control): 0%; pest or weed control at 125 g/ha ([2]; postemergence, visual injury after approximately 10 d, 0 to 100 scale (0 no effect, 100 complete control), read-out: Plant response rating, Galium): 0%; pest or weed control at 31 g/ha ([2]; Postemergence, 31 g ai/ha, visual injury after approx. 10 d, 0 to 100 scale, 0 no effect, 100 complete control, read-out: Plant response rating, Galium): 0%; pest or weed control at 125 g/ha ([3]; postemergence, visual injury after approximately 10 d, 0 to 100 scale (0 no effect, 100 complete control), read-out: Plant response rating, Kochia): 0%; pest or weed control at 31 g/ha ([3]; Postemergence, 31 g ai/ha, visual injury after approx. 10 d, 0 to 100 scale, 0 no effect, 100 complete control, read-out: Plant response rating, Kochia): 0%; pest or weed control at 125 g/ha ([4]; postemergence, visual injury after approximately 10 d, 0 to 100 scale (0 no effect, 100 complete control), read-out: Plant response rating, Ragweed): 0%; pest or weed control at 31 g/ha ([4]; Postemergence, 31 g ai/ha, visual injury after approx. 10 d, 0 to 100 scale, 0 no effect, 100 complete control, read-out: Plant response rating, Ragweed): 0%; pest or weed control at 125 g/ha ([5]; postemergence, visual injury after approximately 10 d, 0 to 100 scale (0 no effect, 100 complete control), read-out: Plant response rating, Barnyardgrass): 70%; pest or weed control at 31 g/ha ([5]; Postemergence, 31 g ai/ha, visual injury after approx. 10 d, 0 to 100 scale, 0 no effect, 100 complete control, read-out: Plant response rating, Barnyardgrass): 20% |
| CN1C[C@H](c2ccc(C(F)(F)F)cc2)[C@@H](C(=O)Nc2cccc(F)c2Cl)C1=O [Compound 938] | 169 to 172 | 60 | 50 | 40 | 0 | 80 |  |

Reference: patent publication US12077503B2, “Substituted cyclic amides and their use as herbicides” (FMC CORPORATION, priority 2015, dated 2024)
